Test results: patent US11617748B2, “Meclozine derivatives and diclazuril derivatives for use in the prevention and/or the treatment of disorders associated to the inflammation induced by P. acnes” (priority 2016, dated 2023)

What was measured:
[1] = tested on: IL-1β production; experiment: P. acnes-induced IL-1β production in ThP-1 monocytes (ELISA); type: cell-based; details: Homo sapiens; ThP-1 cells pre-treated 24 h, then stimulated with P. acnes; read-out: IC50 of inhibition of IL-1β production
Description: Bacterial strain and conditions of growth. P. acnes strain 6919 was obtained from the American Type Culture Collection (Manassas, Va.) and P. acnes strains RON and PIE were isolated from patient with joint infection. All strains were grown under anaerobic conditions in reinforced clostridial liquid and solid medium (RCM) (Difco Laboratories, Detroit, Mich.). P. acnes was transferred from the bacterial stock onto RCM agar plate and incubated for 5 days under anaerobic condition by using a GasPak™ EZ Anaerobic Container System (Becton Dickinson & Co, Sparks Md., USA). A single colony was transferred into 100 ml RCM and grown as described above. Bacterial suspension was then store frozen at −80° C. in presence of 10% glycerol final. […]
ELISA. Human IL-1β, IL-8, hBD-2 and TNF-α protein concentration were measured in the supernatants of stimulated cells using various ELISA Sets (all from Ready-Set-Go from eBioscience, except hBD-2 measurements: Human DEFB4A/BD-2 ELISA Kit from LSBio) according to the manufacturer's instructions. […] The optical density was determined at 450 nm at a wavelength correction of 540 nm.
Both molecules, were tested to inhibit the production of IL-1β by the monocytic cell line. […] The production of IL-1β was measured on culture supernatant by ELISA and the viability of cells was estimated by MTT assay (FIG. 2).

[2] = tested on: PKC; experiment: Western blot of p-PKC/PKC in P. acnes-stimulated HaCaT cells; type: cell-based, human; details: 25 μM, 24 h pre-treatment
Description: Western Blot analysis. Whole cell protein extracts (25 μg) were separated by electrophoresis (LDS-PAGE) under denaturing conditions with NuPAGE Novex 4-12% Bis-Tris gel (1 mm, 12 wells, Invitrogen, UK) and proteins were transferred onto nitrocellulose membranes and saturated in 20 ml of saturation buffer consisting of TBS 1× (Tris Buffered Saline) containing 200 mM Tris, 1.4 M NaCl (pH 7.6), 5% no fat milk, 0.1% Tween 20 for 1 h. […] After washing to remove unbound antibodies, bound primary antibodies were detected by incubation for 1 h using secondary antibody against rabbit- and mouse IgG (Santa Cruz Biotechnology, SC-2357, 1:5000 and SC-2005, 1:5000, respectively). Unbound material was removed by washing and peroxidase activity was detected in a chemiluminescence assay (WesternBright ECL, Advansta, Menlo Park, USA). […]

[3] = tested on: IL-8 production; experiment: IL-8 production by M5-stimulated NHDK, in vitro psoriasis-like model (ELISA); type: cell-based, human; details: NHDK + M5, 48 h
Description: Cell culture, pretreatment and stimulation.
ELISA. Human IL-1β, IL-8, hBD-2 and TNF-α protein concentration were measured in the supernatants of stimulated cells using various ELISA Sets (all from Ready-Set-Go from eBioscience, except hBD-2 measurements: Human DEFB4A/BD-2 ELISA Kit from LSBio) according to the manufacturer's instructions. We used serial dilutions of recombinant human IL-1β, IL-8, hBD-2 and TNF-α for standard curve. The optical density was determined at 450 nm at a wavelength correction of 540 nm.

| SMILES | IC50 [1] [nM] | phosphorylation of PKC induced by P. acnes [2] | effect on IL-8 production, in words ([3]; 0.39 to 12.5 μM) | IC50 ([3]; Homo sapiens, read-out: IC50 of decrease of IL-8 production) [nM] | decrease of IL-8 production ([3]; at 3,125 μM) [%] |
| --- | --- | --- | --- | --- | --- |
| Cc1cccc(CN2CCN(C(c3ccccc3)c3ccc(Cl)cc3)CC2)c1 (stereo not shown) [meclozine, Meclozine] | ~6000 | prevented the phosphorylation | no effect |  |  |
| N#CC(c1ccc(Cl)cc1)c1c(Cl)cc(-n2ncc(=O)[nH]c2=O)cc1Cl (stereo not shown) [diclazuril, Diclazuril] | ~3000 | prevented the phosphorylation |  | 2000 to 3000 | 66 |
